For 41 molecules, IC50 results are on record in patent US20260297109A1, “COMPOUNDS AS SUMO ACTIVATING ENZYME INHIBITORS” (WIGEN BIOMEDICINE TECHNOLOGY (SHANGHAI) CO., LTD., priority 2022, published 2026).

The structures appear in SMILES notation. A value given as a limit tells only on which side of the number the result lay.

The assay has as its target T1, SAE (Homo sapiens, UniProt Q9UBT2).
T1 construct: endogenous in cells; host or cells: HCT116
T1 sequence (Q9UBT2 1-640): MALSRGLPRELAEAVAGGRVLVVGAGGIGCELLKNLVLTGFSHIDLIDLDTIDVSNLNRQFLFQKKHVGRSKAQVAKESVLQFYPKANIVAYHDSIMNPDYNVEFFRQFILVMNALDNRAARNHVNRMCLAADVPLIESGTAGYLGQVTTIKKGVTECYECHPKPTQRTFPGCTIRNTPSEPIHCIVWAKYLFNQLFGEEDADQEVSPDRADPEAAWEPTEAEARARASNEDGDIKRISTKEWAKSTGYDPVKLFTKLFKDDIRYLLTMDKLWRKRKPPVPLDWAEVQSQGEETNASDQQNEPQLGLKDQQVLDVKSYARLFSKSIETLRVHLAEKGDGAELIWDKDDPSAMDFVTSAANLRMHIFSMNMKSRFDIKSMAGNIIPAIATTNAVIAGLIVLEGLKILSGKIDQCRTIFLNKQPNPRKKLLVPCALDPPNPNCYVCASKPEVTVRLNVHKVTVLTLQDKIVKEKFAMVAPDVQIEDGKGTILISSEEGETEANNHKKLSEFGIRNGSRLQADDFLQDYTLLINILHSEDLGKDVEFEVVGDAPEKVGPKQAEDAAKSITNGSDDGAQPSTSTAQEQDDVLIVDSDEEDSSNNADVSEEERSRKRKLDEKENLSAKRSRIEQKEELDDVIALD
T1 sequence (Q9UBE0 1-346): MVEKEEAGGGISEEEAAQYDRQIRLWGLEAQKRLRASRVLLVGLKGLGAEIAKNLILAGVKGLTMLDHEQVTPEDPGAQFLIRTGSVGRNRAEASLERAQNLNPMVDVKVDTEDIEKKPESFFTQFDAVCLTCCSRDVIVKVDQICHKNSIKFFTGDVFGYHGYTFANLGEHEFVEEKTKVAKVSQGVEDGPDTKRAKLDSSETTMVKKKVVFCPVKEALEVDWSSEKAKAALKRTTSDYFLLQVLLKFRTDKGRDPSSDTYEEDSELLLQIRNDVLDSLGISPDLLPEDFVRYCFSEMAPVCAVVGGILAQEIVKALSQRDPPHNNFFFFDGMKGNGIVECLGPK
Briefly: SUMO IF: in vitro inhibitory activity assay against SAE in HCT116 cells (SUMO-2/3 immunofluorescence). Format: cell-based. To be noted: 6 h at 37° C. The gist of the method:
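SUMO-2/3 immunofluorescence (18H8 primary 1:400, FITC secondary 1:300) was read after 6 h compound exposure of HCT116 cells at 37 °C. Inhibition rate and IC50 derive from signal relative to DMSO-treated wells.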

What is called IC50 is the point on the concentration scale where inhibition reaches its midpoint. `C#CCN1Cc2sc(C(=O)c3cncnc3N[C@H]3C[C@H](O)[C@@H](COS(N)(=O)=O)[C@@H]3F)cc2[C@@]2(C1)NCCc1ccc(Cl)cc12` [Compound 658] registered an IC50 (numeric values) above 1000 nM.
Molecule `C#CCN1Cc2sc(C(=O)c3cncnc3N[C@H]3C[C@H](O)[C@@H](COS(N)(=O)=O)[C@@H]3F)cc2[C@]2(C1)NCCc1ccc(Cl)cc12` [Compound 659] showed an IC50 (numeric values) of 20.3 nM.
Take `[2H]C1([2H])Cc2ccc(Cl)cc2C2(CCCc3sc(C(=O)c4cncnc4N[C@H]4C[C@H](O)[C@@H](COS(N)(=O)=O)[C@@H]4F)cc32)N1` (some centres unmarked) [Compound 660]: under “class symbols”, the half-inhibitory concentration (IC50) lay in the range of 50 to 200 nM.
For `[2H]C1([2H])Cc2ccc(Cl)cc2[C@]2(CCCc3sc(C(=O)c4cncnc4N[C@H]4C[C@H](O)[C@@H](COS(N)(=O)=O)[C@@H]4F)cc32)N1` [Compound 661], under “numeric values”, the IC50 was above 1000 nM.
Same read-out and setting: as for `[2H]C1([2H])Cc2ccc(Cl)cc2[C@@]2(CCCc3sc(C(=O)c4cncnc4N[C@H]4C[C@H](O)[C@@H](COS(N)(=O)=O)[C@@H]4F)cc32)N1` [Compound 662], the figure is 23.5 nM.
As for `[2H]C1([2H])CNC2(CCCc3sc(C(=O)c4cncnc4N[C@H]4C[C@H](O)[C@@H](COS(N)(=O)=O)[C@@H]4F)cc32)c2cc(Cl)ccc21` (some centres unmarked) [Compound 663], the IC50 (class symbols) is at most 50 nM.
`[2H]C1([2H])CN[C@]2(CCCc3sc(C(=O)c4cncnc4N[C@H]4C[C@H](O)[C@@H](COS(N)(=O)=O)[C@@H]4F)cc32)c2cc(Cl)ccc21` [Compound 665] registered an IC50 (numeric values) of 20.6 nM.
Turning to `Cc1ccc2c(c1)[C@@]1(CCCc3sc(C(=O)c4cncnc4N[C@H]4C[C@H](O)[C@@H](COS(N)(=O)=O)[C@@H]4F)cc31)NCC2` [Compound 666], under “class symbols”, the half-maximal inhibitory concentration (IC50) was 50 to 200 nM.
Same read-out and setting: to `NS(=O)(=O)OC[C@H]1[C@H](F)[C@@H](Nc2ncncc2C(=O)c2cc3c(s2)CCC[C@]32NCCc3ccc(C4CC4)cc32)C[C@@H]1O` [Compound 667] belongs 50 to 200 nM; to `C#Cc1ccc2c(c1)[C@@]1(CCCc3sc(C(=O)c4cncnc4N[C@H]4C[C@H](O)[C@@H](COS(N)(=O)=O)[C@@H]4F)cc31)NCC2` [Compound 668], 50 to 200 nM; to `NS(=O)(=O)OC[C@H]1[C@H](F)[C@@H](Nc2ncncc2C(=O)c2cc3c(s2)CCC[C@]32NCCc3ccc(C(F)(F)F)cc32)C[C@@H]1O` [Compound 669], 50 to 200 nM.
Same read-out and setting: as for `NS(=O)(=O)OC[C@H]1[C@H](F)[C@@H](Nc2ncncc2C(=O)c2cc3c(s2)CCC[C@]32NCCc3cc(F)c(F)cc32)C[C@@H]1O` [Compound 670], the figure is at most 50 nM; as for `NS(=O)(=O)OC[C@H]1[C@H](F)[C@@H](Nc2ncncc2C(=O)c2cc3c(s2)CCC[C@]32NCCc3cc(F)c(Cl)cc32)C[C@@H]1O` [Compound 671], at most 50 nM.
Still for that read-out and setting: as for `NS(=O)(=O)OC[C@H]1[C@H](F)[C@@H](Nc2ncncc2C(=O)c2cc3c(s2)CCC[C@]32NCCc3cc(Cl)c(Cl)cc32)C[C@@H]1O` [Compound 672], the figure is at most 50 nM; as for `Cc1cc2c(cc1Cl)[C@@]1(CCCc3sc(C(=O)c4cncnc4N[C@H]4C[C@H](O)[C@@H](COS(N)(=O)=O)[C@@H]4F)cc31)NCC2` [Compound 673], at most 50 nM; as for `N#Cc1cc2c(cc1Cl)[C@@]1(CCCc3sc(C(=O)c4cncnc4N[C@H]4C[C@H](O)[C@@H](COS(N)(=O)=O)[C@@H]4F)cc31)NCC2` [Compound 674], at most 50 nM.
Take `COc1cc2c(cc1Cl)[C@@]1(CCCc3sc(C(=O)c4cncnc4N[C@H]4C[C@H](O)[C@@H](COS(N)(=O)=O)[C@@H]4F)cc31)NCC2` [Compound 675]: the IC50 (class symbols) lay within 50 to 200 nM.
Still for that read-out and setting: to `NS(=O)(=O)OC[C@H]1[C@H](F)[C@@H](Nc2ncncc2C(=O)c2cc3c(s2)CCC[C@]32NCCc3cc(F)c(Cl)c(F)c32)C[C@@H]1O` [Compound 676] belongs at most 50 nM; to `NS(=O)(=O)OC[C@H]1[C@H](F)[C@@H](Nc2ncncc2C(=O)c2cc3c(s2)CCC[C@]32NCCc3cc(Cl)c(F)cc32)C[C@@H]1O` [Compound 677], at most 50 nM; to `NS(=O)(=O)OC[C@H]1[C@H](F)[C@@H](Nc2ncncc2C(=O)c2cc3c(s2)CCC[C@]32NCCc3ccncc32)C[C@@H]1O` [Compound 678], 50 to 200 nM.
The same measure, in the same setting: as for `NS(=O)(=O)OC[C@H]1[C@H](F)[C@@H](Nc2ncncc2C(=O)c2cc3c(s2)CCC[C@]32NCCc3cc(Cl)ncc32)C[C@@H]1O` [Compound 679], the figure is 50 to 200 nM; as for `NS(=O)(=O)OC[C@H]1[C@H](F)[C@@H](Nc2ncncc2C(=O)c2cc3c(s2)C=CC[C@]32NCCc3ccc(Cl)cc32)C[C@@H]1O` [Compound 680], at most 50 nM.
Molecule `NS(=O)(=O)OC[C@H]1[C@H](F)[C@@H](Nc2ncncc2C(=O)c2cc3c(s2)CC=C[C@]32NCCc3ccc(Cl)cc32)C[C@@H]1O` [Compound 681] returned a half-inhibitory concentration (IC50) (class symbols) of at most 50 nM.
Same read-out and setting: to `NS(=O)(=O)OC[C@H]1[C@H](F)[C@@H](Nc2ncncc2C(=O)c2cc3c(s2)OCC[C@]32NCCc3ccc(Cl)cc32)C[C@@H]1O` [Compound 682] belongs 50 to 200 nM.
Still for that read-out and setting: to `NS(=O)(=O)OC[C@H]1[C@H](F)[C@@H](Nc2ncncc2C(=O)c2cc3c(s2)CCC[C@]32NC3(CC3)Cc3ccc(Cl)cc32)C[C@@H]1O` [Compound 684] belongs 50 to 200 nM; to `NS(=O)(=O)OC[C@H]1[C@H](F)[C@@H](Nc2ncncc2C(=O)c2cc3c(s2)CCC[C@@]32OCCc3ccc(Cl)cc32)C[C@@H]1O` [Compound 685], above 200 nM; to `NS(=O)(=O)OC[C@H]1[C@H](F)[C@@H](Nc2ncncc2C(=O)c2cc3c(s2)CCC[C@]32OCCc3ccc(Cl)cc32)C[C@@H]1O` [Compound 686], at most 50 nM.
Same read-out and setting: as for `Cc1ccc2c(c1)[C@@]1(CCc3sc(C(=O)c4cncnc4N[C@H]4C[C@H](O)[C@@H](COS(N)(=O)=O)[C@@H]4F)cc31)NCC2` [Compound 687], the figure is 50 to 200 nM; as for `NS(=O)(=O)OC[C@H]1[C@H](F)[C@@H](Nc2ncncc2C(=O)c2cc3c(s2)CC[C@]32NCCc3ccc(C4CC4)cc32)C[C@@H]1O` [Compound 688], 50 to 200 nM.
`COc1ccc2c(c1)[C@@]1(CCc3sc(C(=O)c4cncnc4N[C@H]4C[C@H](O)[C@@H](COS(N)(=O)=O)[C@@H]4F)cc31)NCC2` [Compound 689]: for the setting “class symbols”, the IC50 fell in the range of 50 to 200 nM.
Same read-out and setting: to `NS(=O)(=O)OC[C@H]1[C@H](F)[C@@H](Nc2ncncc2C(=O)c2cc3c(s2)CC[C@]32NCCc3ccc(C(F)(F)F)cc32)C[C@@H]1O` [Compound 690] belongs 50 to 200 nM; to `NS(=O)(=O)OC[C@H]1[C@H](F)[C@@H](Nc2ncncc2C(=O)c2cc3c(s2)CC[C@]32NCCc3cc(F)c(F)cc32)C[C@@H]1O` [Compound 691], at most 50 nM.
Take `NS(=O)(=O)OC[C@H]1[C@H](F)[C@@H](Nc2ncncc2C(=O)c2cc3c(s2)CC[C@]32NCCc3cc(F)c(Cl)cc32)C[C@@H]1O` [Compound 692]: where the note is “class symbols”, the IC50 was at most 50 nM.
In turn, `NS(=O)(=O)OC[C@H]1[C@H](F)[C@@H](Nc2ncncc2C(=O)c2cc3c(s2)CC[C@]32NCCc3cc(Cl)c(Cl)cc32)C[C@@H]1O` [Compound 693] came in with an IC50 (class symbols) of at most 50 nM.
The same measure, in the same setting: as for `Cc1cc2c(cc1Cl)[C@@]1(CCc3sc(C(=O)c4cncnc4N[C@H]4C[C@H](O)[C@@H](COS(N)(=O)=O)[C@@H]4F)cc31)NCC2` [Compound 694], the figure is at most 50 nM.
Still for that read-out and setting: to `N#Cc1cc2c(cc1Cl)[C@@]1(CCc3sc(C(=O)c4cncnc4N[C@H]4C[C@H](O)[C@@H](COS(N)(=O)=O)[C@@H]4F)cc31)NCC2` [Compound 695] belongs at most 50 nM.
Same read-out and setting: to `COc1cc2c(cc1Cl)[C@@]1(CCc3sc(C(=O)c4cncnc4N[C@H]4C[C@H](O)[C@@H](COS(N)(=O)=O)[C@@H]4F)cc31)NCC2` [Compound 696] belongs 50 to 200 nM; to `NS(=O)(=O)OC[C@H]1[C@H](F)[C@@H](Nc2ncncc2C(=O)c2cc3c(s2)CC[C@]32NCCc3cc(F)c(Cl)c(F)c32)C[C@@H]1O` [Compound 697], at most 50 nM; to `NS(=O)(=O)OC[C@H]1[C@H](F)[C@@H](Nc2ncncc2C(=O)c2cc3c(s2)CC[C@]32NCCc3cc(Cl)c(F)cc32)C[C@@H]1O` [Compound 698], at most 50 nM.
As for `NS(=O)(=O)OC[C@H]1[C@H](F)[C@@H](Nc2ncncc2C(=O)c2cc3c(s2)CC[C@]32NCCc3ccncc32)C[C@@H]1O` [Compound 699], the IC50 (class symbols) lay within 50 to 200 nM.
Molecule `NS(=O)(=O)OC[C@H]1[C@H](F)[C@@H](Nc2ncncc2C(=O)c2cc3c(s2)CC[C@]32NCCc3cc(Cl)ncc32)C[C@@H]1O` [Compound 700] came in with an IC50 (class symbols) of 50 to 200 nM.
